# Test results reported in patent US20250241901A1, “ACTIVATION OF MNRR1 / CHCHD2 AS A THERAPEUTIC TARGET FOR MITOCHONDRIA ASSOCIATED DISORDERS” (Wayne State University, priority 2024, published 2025).
# Tests used:
# [1] = system: MNRR1; assay: MNRR1-luciferase reporter assay in HTR cells; type: cell-based; conditions: Homo sapiens; HTR8 cells, 24 h, relative to vehicle (DMSO); read-out: half-maximal effective concentration (EC50), activation of MNRR1 reporter
# Protocol: FIGS. 1A-1D. Nitazoxanide's anti-inflammatory effects are via transcriptional activation of MNRR1. (FIG. 1A) Results of a screen of ˜2400 FDA-approved drugs and natural compounds identified to transcriptionally activate (>1), inhibit (<1), or not affect (=1) MNRR1. Each circle represents one drug and the MNRR1 activator (nitazoxanide (N)) has been highlighted in green. (FIG. 1B) Equal numbers of HTR cells overexpressing the MNRR1-luciferase reporter were plated on a 96 well plate and treated with increasing amounts of nitazoxanide or vehicle (DMSO) for 24 h. EC50 was calculated using the activation of MNRR1 reporter relative to vehicle treated cells using the Quest Graph^TM EC50 Calculator. (FIG. 1C) TNF transcript levels were measured in human placental cells. Actin was used as a housekeeping gene for normalization. […]
# Transfections and luciferase reporter assays: HTR cells were transfected with the indicated plasmids, using TransFast transfection reagent (Promega, Madison, WI, USA) according to the manufacturer's protocol as previously described (Purandare et al., iScience, 25: 105342, 2022). […] EC50 was calculated by using the Quest Graph™ EC50 Calculator (AAT Bioquest, Inc., on the World Wide Web at aatbio.com/tools/ec50-calculator).
# [2] = system: inflammatory factors such as ll6, ll1b, Tnf, and Tlr4; assay: High-throughput RT qPCR of inflammatory factors in decidua; type: in vivo, mouse; conditions: LPS-injected dams
# Protocol: FIGS. 3A & 3B. The transcript levels of several inflammatory factors such as 116, Illb, Tnf, and Tlr4, among others, were assessed in the decidual samples and increased expression was found in dams intra-amniotically injected with LPS that was abrogated upon treatment with nitazoxanide.
# High-throughput RT qPCR: This was performed as previously described (Motomura et al., JCI Insight, 7, 2022). Briefly, total RNA was isolated from decidua with RNeasy Mini Kits (Qiagen), according to the manufacturer's instructions. RNA concentrations, purity, and integrity were evaluated with the NanoDrop 8000 spectrophotometer (Thermo Scientific, Wilmington, DE, USA) and the Bioanalyzer 2100 (Agilent Technologies, Wilmington, DE, USA). cDNA was synthesized by using SuperScript IV VILO Master Mix (Invitrogen by Thermo Fisher Scientific Baltics UAB, Vilnius, Lithuania). Gene expression profiling of the tissues was performed on the BioMark System for high-throughput RT-qPCR (Fluidigm, San Francisco, CA, USA) or the ABI 7500 Fast real-time PCR system (Applied Biosystems, Life Technologies Corporation, Pleasanton, CA, USA) with the TaqMan gene expression assays (Applied Biosystems, Life Technologies Corporation). […] Data were normalized by using multiple reference genes (Gusb, Hsp90abl, Gapdh, and Actb) averaged within each sample, and relative changes in transcript levels were calculated by the AACt method. […]
# [3] = system: MNRR1-promoter driven luciferase reporter; assay: High throughput screen with MNRR1-promoter driven luciferase reporter cell lines; type: cell-based, human; conditions: list of 2400 FDA-approved drugs, small molecules and natural products
# Protocol: Cell lines, culture, and Z′ determination: Stable cell line generation: HEK293 or MDA-MB-468 cells were transfected with pGL4-MNNR1-luciferase, selected with 0.5 μg/mL (for 293) or 1 μg/mL (for 468) puromycin for 2 weeks, and subcloned by limiting dilution. MDA-MB-468-MNRR1-luc and HEK293-MNRR1-luc cells from multiple clones (5000-7500 cells) were plated in 100 μL of complete medium overnight and treated with 10 μM of each compound from the library for 24 h. The medium was aspirated from each well to a volume of 25 μL, and 25 μL Bright Glo (Promega, Madison, WI) luciferase detection reagent was added to each well 10 min prior to luminescent determination with a FlexStation 3 Multimode Microplate Reader (Molecular Devices, San Jose, CA). […] The Z′ factor is a value used to identify strong candidates and can be calculated using a previously described method. […]
# MicroSource Spectrum Collection: Despite the low Z′ values for MDA-MB-468-MNRR1-luc and HEK293-MNRR1-luc, pilot screens were performed with both using the MicroSource Spectrum Collection (Gaylordsville, CT). […] For HTS, cells were plated, treated, and measured for luciferase expression as described for clone identification; all HTS compounds were added to a final concentration of 10 μM and MNRR1-luciferase expression was measured after 24 h. […]
smiles,measurement,setting,value
"CC(=O)Oc1ccccc1C(=O)Nc1ncc([N+](=O)[O-])s1 [nitazoxanide, Nitazoxanide]",EC50,[1],115 nM
same,LPS-increased transcript levels of inflammatory factors in decidual samples,[2],abrogated
same,outcome of screen for MNRR1 activators,[3],identified as an MNRR1 activator
